Results on four compounds are retold here after patent publication US20230406865A1, “CRYSTAL FORM OF FREE BASE OF INHIBITOR CONTAINING BICYCLIC RING DERIVATIVE AND PREPARATION METHOD AND APPLICATION OF CRYSTAL FORM” (SHANGHAI HANSOH BIOMEDICAL CO., LTD., priority 2020, published 2023).

The target of one data set is T1, RET kinase (Homo sapiens, UniProt P07949).
T1 construct: purchased Carna 08-159
The data set can be described thus: HTRF kinase activity inhibition, RET wild-type. The format is biochemical. Conditions: ATP at Km. The method in brief:
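HTRF (KinEASE-TK) kinase assay with recombinant RET wild-type, RET V804M, RET V804L and KIF5B-RET enzymes plus ATP.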
For orientation: Time-resolved FRET reads energy transfer from a long-lived donor to a nearby acceptor.

The target in a further data set is T2, Ba/F3 KIF5B-RET cells (Homo sapiens, UniProt P07949).
T2 construct: fused on or other part: P33176 (Kinesin-1 heavy chain)
T2 sequence (P07949 whole entry, change not shown, the tested form may be a part): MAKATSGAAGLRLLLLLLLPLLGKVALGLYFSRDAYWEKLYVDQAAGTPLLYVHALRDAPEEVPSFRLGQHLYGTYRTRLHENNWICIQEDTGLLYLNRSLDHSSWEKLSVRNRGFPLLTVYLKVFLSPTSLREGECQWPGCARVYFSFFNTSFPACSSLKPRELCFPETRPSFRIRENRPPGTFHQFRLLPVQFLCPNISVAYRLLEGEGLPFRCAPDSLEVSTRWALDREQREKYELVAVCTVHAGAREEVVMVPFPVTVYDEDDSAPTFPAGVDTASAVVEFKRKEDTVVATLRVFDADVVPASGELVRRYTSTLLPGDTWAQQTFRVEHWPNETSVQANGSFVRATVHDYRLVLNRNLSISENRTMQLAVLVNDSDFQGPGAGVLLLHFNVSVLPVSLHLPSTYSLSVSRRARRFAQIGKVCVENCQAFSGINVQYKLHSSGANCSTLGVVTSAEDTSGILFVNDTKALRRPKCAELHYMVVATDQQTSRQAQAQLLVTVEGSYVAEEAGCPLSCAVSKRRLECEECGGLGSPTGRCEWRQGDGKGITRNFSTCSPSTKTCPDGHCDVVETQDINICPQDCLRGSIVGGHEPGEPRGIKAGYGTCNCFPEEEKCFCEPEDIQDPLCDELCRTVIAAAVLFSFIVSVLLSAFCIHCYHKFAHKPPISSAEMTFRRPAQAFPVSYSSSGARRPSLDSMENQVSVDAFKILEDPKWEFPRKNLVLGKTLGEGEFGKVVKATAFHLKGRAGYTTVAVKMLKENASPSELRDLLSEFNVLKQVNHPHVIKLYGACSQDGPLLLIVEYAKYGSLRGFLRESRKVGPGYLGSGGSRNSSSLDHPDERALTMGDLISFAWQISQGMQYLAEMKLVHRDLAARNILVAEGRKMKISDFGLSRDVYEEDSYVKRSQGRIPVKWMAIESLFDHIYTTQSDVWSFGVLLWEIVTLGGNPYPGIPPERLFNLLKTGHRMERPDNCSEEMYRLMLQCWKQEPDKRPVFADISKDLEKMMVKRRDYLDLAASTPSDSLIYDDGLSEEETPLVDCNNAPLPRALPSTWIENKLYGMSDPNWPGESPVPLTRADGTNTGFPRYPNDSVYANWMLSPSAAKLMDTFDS
The data set can be described thus: Inhibition of proliferation of Ba/F3 KIF5B-RET cells (CellTiter-Glo). The format is cell-based. Particulars: 72 to 144 hours. The method, boiled down:
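Cells plated overnight, then exposed to compound dilutions in DMSO/medium at 37° C, 5% CO2 for 72 to 144 hours. Viability read by CellTiter-Glo luminescence; IC50 from inhibition rates fitted by nonlinear regression.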

A short description of data set [1]: Balb/C mouse pharmacokinetics, oral 5 mg/kg. The format is in vivo, Balb/C mice. Particulars: male, p.o. 5 mg/kg, plasma; for MRT: read-out: Average residence time MRT; for Cmax: read-out: Blood concentration Cmax; for AUC(0-t): read-out: Curve area AUC0-t; for AUC(0-inf): read-out: Curve area AUC0-∞; for half-life: read-out: Half-life t1/2 (converted); for Tmax: read-out: Peak time tmax. The method, boiled down: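 Male Balb/C mice (6 per compound) were fasted overnight and dosed in 0.5% CMC-Na (1% Tween80) solution or suspension. EDTA-K2 plasma was sampled at 0, 0.5, 1, 2, 4, 6, 8 and 24 h. Compound levels were measured by LC/MS/MS after acetonitrile precipitation, and PK parameters were derived from the plasma profiles.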

In the next data set the target is T3, KDR kinase (Homo sapiens, UniProt P35968).
T3 construct: purchased Carna 08-191
T3 sequence (P35968 20-1356): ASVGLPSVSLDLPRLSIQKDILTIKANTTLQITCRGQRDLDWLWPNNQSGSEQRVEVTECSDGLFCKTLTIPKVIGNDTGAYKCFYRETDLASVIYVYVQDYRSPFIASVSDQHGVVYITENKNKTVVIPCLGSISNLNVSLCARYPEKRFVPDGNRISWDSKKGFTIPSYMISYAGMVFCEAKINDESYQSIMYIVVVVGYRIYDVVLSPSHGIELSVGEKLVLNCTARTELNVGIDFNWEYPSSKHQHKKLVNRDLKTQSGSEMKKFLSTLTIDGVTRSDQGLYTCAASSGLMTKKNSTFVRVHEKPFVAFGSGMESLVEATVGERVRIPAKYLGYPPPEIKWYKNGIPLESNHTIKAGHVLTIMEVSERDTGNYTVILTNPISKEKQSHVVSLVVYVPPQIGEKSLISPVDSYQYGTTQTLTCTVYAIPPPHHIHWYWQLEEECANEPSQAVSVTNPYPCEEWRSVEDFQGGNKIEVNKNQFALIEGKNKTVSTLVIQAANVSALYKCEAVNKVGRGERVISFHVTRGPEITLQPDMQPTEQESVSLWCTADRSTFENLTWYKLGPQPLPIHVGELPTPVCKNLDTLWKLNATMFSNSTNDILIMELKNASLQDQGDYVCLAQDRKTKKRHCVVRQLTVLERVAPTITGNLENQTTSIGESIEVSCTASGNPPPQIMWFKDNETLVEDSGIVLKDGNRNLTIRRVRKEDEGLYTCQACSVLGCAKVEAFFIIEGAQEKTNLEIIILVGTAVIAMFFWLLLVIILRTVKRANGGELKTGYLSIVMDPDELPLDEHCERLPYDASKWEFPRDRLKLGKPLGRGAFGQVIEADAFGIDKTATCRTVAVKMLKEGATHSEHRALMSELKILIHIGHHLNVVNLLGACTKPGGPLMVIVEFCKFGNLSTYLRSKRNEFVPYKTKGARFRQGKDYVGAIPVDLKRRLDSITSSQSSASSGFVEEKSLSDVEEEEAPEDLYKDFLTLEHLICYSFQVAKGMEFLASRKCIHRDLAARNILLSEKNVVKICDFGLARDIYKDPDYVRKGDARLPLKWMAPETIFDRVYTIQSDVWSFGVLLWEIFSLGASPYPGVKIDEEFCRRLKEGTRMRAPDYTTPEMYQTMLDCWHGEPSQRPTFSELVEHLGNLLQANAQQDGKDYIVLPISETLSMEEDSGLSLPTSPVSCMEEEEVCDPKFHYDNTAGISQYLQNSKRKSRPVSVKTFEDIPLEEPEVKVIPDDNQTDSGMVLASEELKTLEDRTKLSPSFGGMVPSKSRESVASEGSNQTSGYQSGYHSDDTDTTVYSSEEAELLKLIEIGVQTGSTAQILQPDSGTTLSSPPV
The data set can be described thus: HTRF kinase activity inhibition, KDR. Conditions: for IC50: HTRF, ATP at Km; for Ratio (KDR/RET): KDR IC50 / RET IC50. The format is biochemical. The method, boiled down: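 Inhibition of KDR kinase activity measured by homogeneous time-resolved fluorescence with a tyrosine-kinase KinEASE substrate kit and ATP.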

For data set [2], the system named is TT cells (MTC, RET C634W). The data set can be described thus: Inhibition of proliferation of TT cells (CellTiter-Glo, 72 h). The format is cell-based. Particulars: Homo sapiens. The method, boiled down: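 TT cells seeded overnight, then exposed to compound dilutions for 72 h at 37 °C, 5% CO2, with a solvent control. Viability read by CellTiter-Glo luminescence; IC50 from nonlinear regression of inhibition rate versus concentration.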
For orientation: ATP-based viability assays read luminescence as a measure of living cells.

The next data set deals with T4, RET M918T (Homo sapiens, UniProt P07949, M918T).
T4 construct: purchased Carna 08-508
T4 sequence (P07949 29-1114 M918T): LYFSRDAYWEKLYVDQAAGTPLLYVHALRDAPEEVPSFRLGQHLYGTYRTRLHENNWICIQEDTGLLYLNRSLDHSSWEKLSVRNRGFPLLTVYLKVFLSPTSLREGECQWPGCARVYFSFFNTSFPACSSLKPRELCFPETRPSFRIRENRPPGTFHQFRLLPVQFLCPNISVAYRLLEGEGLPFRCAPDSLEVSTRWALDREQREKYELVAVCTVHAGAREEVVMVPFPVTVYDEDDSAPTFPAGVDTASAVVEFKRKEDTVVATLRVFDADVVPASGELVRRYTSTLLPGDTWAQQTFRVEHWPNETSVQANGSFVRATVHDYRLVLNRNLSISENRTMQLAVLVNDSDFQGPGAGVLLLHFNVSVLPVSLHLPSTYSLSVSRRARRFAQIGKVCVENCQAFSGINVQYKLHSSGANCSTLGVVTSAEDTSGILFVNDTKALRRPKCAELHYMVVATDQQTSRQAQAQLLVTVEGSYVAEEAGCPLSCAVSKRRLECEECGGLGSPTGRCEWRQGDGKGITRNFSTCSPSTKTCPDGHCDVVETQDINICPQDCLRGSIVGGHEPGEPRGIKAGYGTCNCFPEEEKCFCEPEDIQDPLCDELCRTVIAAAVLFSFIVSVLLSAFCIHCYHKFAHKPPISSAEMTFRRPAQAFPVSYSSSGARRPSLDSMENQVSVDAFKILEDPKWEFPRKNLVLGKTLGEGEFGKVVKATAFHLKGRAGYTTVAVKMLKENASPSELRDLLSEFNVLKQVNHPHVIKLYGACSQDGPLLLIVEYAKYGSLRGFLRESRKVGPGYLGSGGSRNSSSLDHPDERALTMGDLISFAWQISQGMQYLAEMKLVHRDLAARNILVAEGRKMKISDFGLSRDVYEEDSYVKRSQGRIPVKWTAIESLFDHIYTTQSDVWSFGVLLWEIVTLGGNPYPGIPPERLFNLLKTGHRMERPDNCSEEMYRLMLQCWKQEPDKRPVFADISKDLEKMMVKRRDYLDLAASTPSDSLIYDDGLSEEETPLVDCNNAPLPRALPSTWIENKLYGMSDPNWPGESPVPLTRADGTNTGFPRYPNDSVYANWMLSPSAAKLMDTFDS
Briefly: HTRF kinase activity inhibition, RET M918T. The format is biochemical. Conditions: ATP at Km. The text has this: 2.2 Experimental Reagents: • RET enzyme was purchased from Carna Company, and the article number was 08-159; • RET M918T enzyme was purchased from Carna Company, and the article number was 08-508; • KIF5B-RET was purchased from SignalChem Company, the article number was R02-19FG-05; • CCDC6-RET was purchased from SignalChem Company, the article number was R02-19BG-05; • RET V804M enzyme was purchased from Thermofisher Company, and the article number was PV6223; • RET V804L enzyme was purchased from Thermofisher Company, and the article number was PV4397; • HTRF KinEASE-TK kit was purchased from Cisbio Company, and the article number was 62TK0PEC; • ATP was purchased from Thermofisher Company, and the article number was PV3227; • 384-well plate was purchased from PerkinElmer Company, and the article number was 6007290.
In this experiment, a homogeneous time-resolved fluorescence (HTRF) method was used for the detection of compounds on RET kinase activity.

Data set [3] relates to subcutaneous transplanted tumor of Ba/F3 KIF5B-RET cells. The data set can be described thus: Tumor suppression on Ba/F3 KIF5B-RET transplanted tumor model. The format is in vivo, BALB/c nude mice. Particulars: 10 mg/kg oral twice a day. As to the method:
Ba/F3 KIF5B-RET cells were removed from the cell bank, resuscitated and added to RPMI1640 medium (RPMI1640+10% FBS+1% Glu+1% P/S), then cultured in a CO2 incubator (incubator temperature was 37° C., CO2 concentration was 5%), and when the cell number expanded to the required number for in vivo inoculation, Ba/F3 KIF5B-RET cells were collected. The cells were counted with an automatic cell counter, resuspended with PBS according to the count results, made into a cell suspension (density was 2×10^7/mL), and placed in an ice box for use.
Female BALB/c nude mice aged 6-8 weeks were used, weighing about 18-22 g. Mice were reared in SPF animal room, and were reared in a single cage with 5 mice in each cage. All cages, bedding and water were sterilized at high temperature before use, and all animals were allowed to eat and drink freely. Nude mice were labeled with disposable universal ear tags for mice and rats before the start of the experiment, and the skin of the inoculation site was disinfected with 75% medical alcohol before inoculation. 0.1 mL (containing 2*10^6 cells) of Ba/F3 KIF5B-RET cells were inoculated subcutaneously on the right back of each mouse. Group administration was initiated when the tumor volume reached 60-200 mm^3, with 5 mice in each group. Each test compound was administered orally twice a day for 14 days. The tumor volume and the weight of mice were measured twice a week, and the tumor TGI (%) was calculated.
The tumor volume (mm^3) was calculated as V=0.5*D*d*d, where D and d were the long and short diameters of the tumor, respectively.
When there was no tumor regression, TGI (%)=[(1-(mean tumor volume at the end of the administration in a treatment group−mean tumor volume at the start of administration in the treatment group))/(mean tumor volume at the end of treatment in the solvent control group−mean tumor volume at the start of treatment in the solvent control group)]×100%.
When there was tumor regression, TGI (%)=[1-(mean tumor volume at the end of administration in a treatment group−mean tumor volume at the beginning of administration in the treatment group)/mean tumor volume at the beginning of administration in the treatment group]×100%.

T1 sequence (P07949 29-1114): as the sequence (P07949 29-1114 M918T) above, with T890M counted along it

A word on the IC50: it is the concentration that gives 50% inhibition. Usually MRT stands for a mean duration of stay, worked out from the concentration-time curve. For orientation: Tmax means the time from dosing to the highest level. In the case of `COc1ccc(CN2C3CC2CN(c2ccc(-c4cc(N5CC(C(C)(C)O)C5)cn5ncc(C#N)c45)cn2)C3)cn1` [Embodiment 7, 6-(3-(2-Hydroxypropan-2-yl)azetidin-1-yl)-4-(6-(6-((6-methoxypyridin-3-yl)methyl)-3,6-diazabicyclo[3.1.1]heptan-3-yl)pyridin-3-yl)pyrazolo[1,5-a]pyridine-3-carbonitrile], the IC50 at RET kinase was 0.69 nM. In addition, at Ba/F3 KIF5B-RET cells, the half-maximal inhibitory concentration (IC50) was 13 nM. In data set [1], the MRT was 3.76 h, the Cmax was found to be 3280 ng/mL, the AUC(0-t) stood at 13800 ng·h/mL and the AUC(0-inf) amounted to 13800 ng·h/mL. Moreover, in data set [1], the half-life was 2.18 h and the Tmax stood at 0.5 h. Besides, on KDR kinase, it took 11 nM to reach half-maximal inhibition (IC50) and the “Ratio (KDR/RET)” value is given as 16. Moreover, the IC50 in data set [2] stood at 11 nM. Also, the midpoint of inhibition against RET M918T, the IC50, lay at 1.06 nM. The “Tumor volume (Mean ± SD) Day 0” value in data set [3] (Day 0) is 100.80 ± 31.28 mm^3. Besides, in data set [3] (Day 14), the “TGI (%) Day 14” value stood at 90.82% and the “Tumor volume (Mean ± SD) Day 14” value was 232.46 ± 133.65 mm^3.
Take `COc1ccc(CN2C3CC2CN(c2ccc(-c4cc(C#CC(C)(C)O)cn5ncc(C#N)c45)cn2)C3)cn1` [Embodiment 8, 6-(3-Hydroxy-3-methylbut-1-yn-1-yl)-4-(6-(6-((6-methoxypyridin-3-yl)methyl)-3,6-diazabicyclo[3.1.1]heptan-3-yl)pyridin-3-yl)pyrazolo[1,5-a]pyridine-3-carbonitrile]: the IC50 against RET kinase came out at 0.48 nM. In addition, at Ba/F3 KIF5B-RET cells, the IC50 is 12 nM. In data set [1], the mean residence time MRT is 4.91 h, the Cmax stood at 3710 ng/mL, the AUC(0-t) turned out to be 21400 ng·h/mL and the AUC(0-inf) turned out to be 21500 ng·h/mL. Also, in data set [1], the half-life is 3.37 h and the Tmax came to 0.5 h. Also, at KDR kinase, the IC50 came out at 16 nM and the “Ratio (KDR/RET)” value was found to be 34. In addition, in data set [2], the IC50 was found to be 17 nM. This compound returned an IC50 against RET M918T of 0.67 nM.
On RET kinase, `COc1ncc(CN2C3CC2CN(c2ccc(-c4cc(N5CC(C(C)(C)O)C5)cn5ncc(C#N)c45)cn2)C3)cc1F` [Embodiment 31, 4-(6-(6-((5-Fluoro-6-methoxypyridin-3-yl)methyl)-3,6-diazabicyclo[3.1.1]heptan-3-yl)pyridin-3-yl)-6-(3-(2-hydroxypropan-2-yl)azetidin-1-yl)pyrazolo[1,5-a]pyridine-3-carbonitrile] came in with an IC50 of 0.75 nM. In data set [1], the MRT amounted to 4.71 h, the Cmax stood at 3120 ng/mL, the AUC(0-t) was determined as 18900 ng·h/mL and the AUC(0-inf) was 18900 ng·h/mL. Besides, in data set [1], the half-life was 2.66 h and the Tmax amounted to 0.5 h. Besides, on KDR kinase, the IC50 came out at 23 nM and the “Ratio (KDR/RET)” value is listed as 30. In addition, the half-maximal inhibitory concentration (IC50) in data set [2] amounted to 6.59 nM. Further, half-maximal inhibition at RET M918T (IC50) required 0.47 nM.
For the compound `CC(C)(O)C#Cc1cc(-c2ccc(N3CCC(C)(NC(=O)c4ncccc4Cl)CC3)nc2)c2c(C#N)cnn2c1` [Embodiment 85, 3-Chloro-N-(1-(5-(3-cyano-6-(3-hydroxy-3-methylbut-1-yn-1-yl)pyrazolo[1,5-a]pyridin-4-yl)pyridin-2-yl)-4-methylpiperidin-4-yl)picolinamide], the IC50 against RET kinase was found to be 0.38 nM; at KDR kinase it was 46 nM; in data set [2], 9.44 nM; against RET M918T, 0.79 nM. The “Ratio (KDR/RET)” value on KDR kinase is 122.
